The experiment has as its system neutrophil extracellular trap (NET) formation. Nature of the experiment: In vitro NET formation by stimulated human PMNs (live cell imaging, NET-associated histone H3 release). The experiment is classed as cell-based. The note with it: for PMA-stimulated NET deployment: PMA 20 nM, 1 hour preincubation; for PMA-stimulated NET deployment / NET formation triggered by heme: peptides 1 nM; for NET formation triggered by LPS: adult PMNs preincubated with agent, LPS 100 ng/mL, 1 hour; for NET formation triggered by heme: heme 1 μM; for relative inhibition of NETosis (order of potency): initial comparison of NRPs. On the procedure: Qualitative assessment of NET formation was performed as previously reported (see Yost C C, et al., Blood. 2009; 113 (25):6419-27 and McInturff A M, et al., Blood. 2012; 120 (15):3118-25). Briefly, primary PMNs isolated from preterm infants, healthy term infants, and healthy adults (2×10^6 cells/mL) were incubated with control buffer or stimulated with indicated agonists or bacteria for 1 hour at 37° C. in 5% CO2/95% air on glass coverslips coated with poly-L-lysine. For selected experiments, primary PMNs were pre-incubated with autologous plasma, cord blood plasma, nNIF (0.2-70 nM), CRISPP (0.2-70 nM), nNIF-SCR (1 nM), or CRISPP-SCR (1 nM) for one hour prior to stimulation. After pre-incubation and/or stimulation, PMNs were gently washed with PBS and incubated with a mixture of cell permeable (SYTO® Green, MOLECULAR PROBES®) and impermeable (SYTOX® Orange, MOLECULAR PROBES®) DNA fluorescent dyes. Confocal microscopy was accomplished using a FV1000 IX81 confocal microscope and FLUOVIEW™ software (OLYMPUS™). Both 20× and 60× objectives were used. Z-series images were obtained at a step size of 1 μm over a range of 20 μm for each field. FLUOVIEW™ and ADOBE™ PHOTOSHOP™ CS2 software was used for image processing.
Using BSL 2 safety protocols, primary PMNs isolated from healthy adults (2×10^6 cells/mL) were incubated with mock infection buffer or live dengue virus (M010.05) as for live cell imaging. After a 1-hour incubation, the infected PMNs were fixed with 2% p-FA for 10 minutes prior to incubation with fluorescently-labeled, cell-permeable and cell-impermeable DNA dyes, and imaged as for live cell imaging using confocal microscopy.
NET-associated histone H3 content was determined as previously described (see McInturff A M, et al., Blood. 2012; 120 (15):3118-25). After live cell imaging of control and stimulated primary PMNs (2×10^6/mL; various agonists), the cells were incubated with PBS containing DNase (40 U/mL) for 15 minutes at room temperature to break down and release NETs formed in response to stimulation. The supernatant was gently removed and centrifuged at 420×g for 5 minutes. The cell-free supernatant was then mixed 3:1 with 4× Laemmli buffer prior to western blotting. A polyclonal primary antibody against human histone H3 protein (CELL SIGNALING®) and infrared-conjugated secondary antibodies (LI-COR®) were used. Imaging and densitometry were performed on the ODYSSEY® infrared imaging system)(LI-COR®). This assay was previously validated as a surrogate for NET formation under in vitro conditions (see McInturff A M, et al., Blood. 2012; 120 (15):3118-25) as employed in the present studies.
Without being bound by any specific theory, it was hypothesized that placentally expressed HTRA1, a serine protease, regulates the formation of NET-inhibitory peptides through cleavage of AAT. To test this hypothesis, term and preterm placenta were assessed for HTRA1 expression via western blotting. HTRA1 and AAT plasma expression from term and preterm infants and adults were determined by ELISA. Bioactive (0.5 μg) or placental eluted HTRA1 was incubated with AAT (8 μM) for 18 hours at 37° C. Carboxy-terminus fragments of AAT were detected using western blotting and mass spectrometry. The reaction products were incubated for 1 hour with PMNs isolated from healthy adults prior to LPS stimulation (100 ng/mL) and assessed for NET formation using live cell imaging. Reactive oxygen species were assessed using flow cytometry, chemotaxis using a modified Boyden chamber assay, and bacterial killing using E. coli.

“Also recorded” adds a separate entry of the source.

The values below come from patent US10857201B2, “NNIF and nNIF-related peptides and related methods” (UNIVERSITY OF UTAH RESEARCH FOUNDATION, priority 2016, dated 2020).

As to “KFNKPFVFLMIEQNTKSPLFMGKVVNPTQ (listed as Homo sapiens) [nNIF]”, the “PMA-stimulated NET deployment” value is “blocked”, the “NET formation triggered by LPS” value is reported as “potent NET-inhibitory activity; also recorded: inhibits NET formation; also recorded: inhibited LPS-stimulated NET deployment; also recorded: inhibit NET formation at nanomolar concentrations”, the “NET formation triggered by heme” value is on record as “inhibit” and the “relative inhibition of NETosis (order of potency)” value was “nNIF ≈CRISPP>A1ATm^358”.

Take “M_IPPEVKFNKPFVFLMIDQNTKVPLFMGK [CRISPP, consensus peptide based on factors present in the blood of patients with cancer]”: the “PMA-stimulated NET deployment” value is listed as “blocked”, the “NET formation triggered by LPS” value was “inhibits NET formation; also recorded: inhibited LPS-stimulated NET deployment; also recorded: inhibit NET formation at nanomolar concentrations”, the “NET formation triggered by heme” value is “inhibit” and the “relative inhibition of NETosis (order of potency)” value is “nNIF ≈CRISPP>A1ATm^358”. Under “S. aureus MOI 100:1, peptide 1 nM”, the “NET formation induced by live Staphylococcus aureus” value is given as “inhibited”. Besides, the “NET generation stimulated by dengue virus” value (dengue virus MOI 0.05:1, peptide 1 nM) was “inhibited”.
